In patent US9434743B2, “Indazole derivatives” (TAKEDA PHARMACEUTICAL COMPANY LIMITED, priority 2012, dated 2016):

Legend:
[1] = target: T1, human MetAP2 enzyme (Homo sapiens, UniProt P50579); test: MetAP2 enzyme assay, enzyme complexed with cobalt ions; conditions: MetAP2 Co pIC50, MetAP2 enzyme complexed with cobalt ions; Met-AMC substrate at Km
Procedure: DNA encoding the full-length sequence of human MetAP2 enzyme is amplified by PCR and cloned into a pFastBac expression vector (Invitrogen). Recombinant baculovirus incorporating the MetAP2 construct is generated by transposition using the Bac-to-Bac system (Invitrogen). The expression of recombinant protein is carried out by infection of Spodoptera frugiperda Sf9 cells (Invitrogen) in 5 L Wave Bioreactors (Wave Biotech). Recombinant protein is isolated from cellular extracts by binding to an SP Hitrap Fast Flow or SP Sepharose (Sigma) column, and the protein is eluted using a NaCl gradient. Partially purified extracts of MetAP2 are further purified by an AKTA FPLC over a Superdex-200 column (GE). The purity of MetAP2 protein is determined on denaturing SDS-PAGE gel.
The results for each well are expressed as percent inhibition and calculated using the equation:

[2] = target: T1, human MetAP2 enzyme; test: MetAP2 enzyme assay, enzyme complexed with manganese ions; conditions: MetAP2 Mn pIC50, MetAP2 enzyme complexed with manganese ions; Met-AMC substrate at Km

T1 sequence (P50579 whole entry): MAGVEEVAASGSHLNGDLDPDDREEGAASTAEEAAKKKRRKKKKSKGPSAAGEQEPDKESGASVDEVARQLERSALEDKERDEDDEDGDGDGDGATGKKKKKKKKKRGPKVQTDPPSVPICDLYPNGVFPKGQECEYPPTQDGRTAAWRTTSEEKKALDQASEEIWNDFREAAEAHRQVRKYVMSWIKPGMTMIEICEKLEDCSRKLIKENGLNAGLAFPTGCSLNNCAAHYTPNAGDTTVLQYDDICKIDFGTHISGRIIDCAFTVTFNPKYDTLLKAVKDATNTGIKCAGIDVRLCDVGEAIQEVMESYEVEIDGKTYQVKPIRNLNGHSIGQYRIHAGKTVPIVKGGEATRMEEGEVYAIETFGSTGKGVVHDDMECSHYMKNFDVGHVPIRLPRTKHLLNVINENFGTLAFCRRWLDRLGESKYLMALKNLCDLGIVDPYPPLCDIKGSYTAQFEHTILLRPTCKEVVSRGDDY

Nc1ncc(-c2cc(C(F)(F)F)cc3[nH]ncc23)cn1 [Example 9, 5-(6-(trifluoromethyl)-1H-indazol-4-yl)pyrimidin-2-amine]
IC50 [1]: 0.0501 µM
IC50 [2]: 0.00398 µM

Cc1c(-c2cc(C(F)(F)F)cc3[nH]ncc23)cnn1C [Example 79, 4-(1,5-dimethyl-1H-pyrazol-4-yl)-6-(trifluoromethyl)-1H-indazole]
IC50 [1]: 0.0251 µM
IC50 [2]: 0.01 µM

Cn1c(-c2cc(C(F)(F)F)cc3[nH]ncc23)nc2c1c(=O)[nH]c(=O)n2C [Example 167, 3,7-dimethyl-8-(6-(trifluoromethyl)-1H-indazol-4-yl)-1H-purine-2,6(3H,7H)-dione]
IC50 [1]: 0.158 µM
IC50 [2]: 0.00398 µM

NS(=O)(=O)c1cc(F)c(-c2cc(C(F)(F)F)cc3[nH]ncc23)cc1F [Example 376, 2,5-difluoro-4-(6-(trifluoromethyl)-1H-indazol-4-yl)benzenesulfonamide]
IC50 [1]: 0.0501 µM
IC50 [2]: 0.00501 µM

Cc1nc(N)nc(C)c1-c1cc(C(F)(F)F)cc2[nH]ncc12 [Example 190, 4,6-dimethyl-5-(6-(trifluoromethyl)-1H-indazol-4-yl)pyrimidin-2-amine]
IC50 [1]: 0.2 µM
IC50 [2]: 0.0398 µM

CN(C)C(=O)Cn1c(=O)c(-c2cc(C(F)(F)F)cc3[nH]ncc23)cn(C)c1=O [Example 309, N,N-dimethyl-2-(3-methyl-2,6-dioxo-5-(6-(trifluoromethyl)-1H-indazol-4-yl)-2,3-dihydropyrimidin-1(6H)-yl)acetamide]
IC50 [1]: 1 µM
IC50 [2]: 0.02 µM

Cn1cc(-c2cc(C(F)(F)F)cc3[nH]ncc23)c(=O)n(C)c1=O [Example 82, 1,3-dimethyl-5-(6-(trifluoromethyl)-1H-indazol-4-yl)pyrimidine-2,4(1H,3H)-dione]
IC50 [1]: 0.501 µM
IC50 [2]: 0.01 µM

Cc1nc(N2C[C@H]3C[C@H]3C2C(N)=O)ncc1-c1cc(C(F)(F)F)cc2[nH]ncc12 (stereo partly drawn) [Example 415, (1R,5S)-3-(4-methyl-5-(6-(trifluoromethyl)-1H-indazol-4-yl)pyrimidin-2-yl)-3-azabicyclo[3.1.0]hexane-2-carboxamide]
IC50 [1]: 0.01 µM
IC50 [2]: 0.00794 µM

Cc1cc(=O)n(Cc2ccccn2)cc1-c1cc(C(F)(F)F)cc2[nH]ncc12 [Example 406, 4-methyl-1-(pyridin-2-ylmethyl)-5-(6-(trifluoromethyl)-1H-indazol-4-yl)pyridin-2(1H)-one]
IC50 [1]: 0.0794 µM
IC50 [2]: 0.0158 µM

FC(F)(F)c1cc(-c2ccc3[nH]cnc3c2)c2cn[nH]c2c1 [Example 17, 4-(1H-benzo[d]imidazol-5-yl)-6-(trifluoromethyl)-1H-indazole]
IC50 [1]: 0.02 µM
IC50 [2]: 0.00794 µM

Nc1ncc(-c2cc(C(F)(F)F)cc3[nH]ncc23)c2cccnc12 [Example 142, 5-(6-(trifluoromethyl)-1H-indazol-4-yl)-1,7-naphthyridin-8-amine]
IC50 [1]: 0.0251 µM
IC50 [2]: 0.00794 µM

C[C@H](O)CNC(=O)c1cc(-c2cc(C(F)(F)F)cc3[nH]ncc23)c(=O)n(C)c1 [Example 359, (S)—N-(2-hydroxypropyl)-1-methyl-6-oxo-5-(6-(trifluoromethyl)-1H-indazol-4-yl)-1,6-dihydropyridine-3-carboxamide]
IC50 [1]: 0.501 µM
IC50 [2]: 0.01 µM

COc1ccc(C(=O)N(C)C)cc1-c1cc(C(F)(F)F)cc2[nH]ncc12 [Example 272, 4-methoxy-N,N-dimethyl-3-(6-(trifluoromethyl)-1H-indazol-4-yl)benzamide]
IC50 [1]: 0.0398 µM
IC50 [2]: 0.01 µM

Cc1ncc(-c2cc(C(F)(F)F)cc3[nH]ncc23)c2cc[nH]c12 [Example 292, 4-(7-methyl-1H-pyrrolo[2,3-c]pyridin-4-yl)-6-(trifluoromethyl)-1H-indazole]
IC50 [1]: 0.0398 µM
IC50 [2]: 0.00631 µM

Cn1cc(C(=O)NCC(O)CO)cc(-c2cc(C(F)(F)F)cc3[nH]ncc23)c1=O (stereo not shown) [Example 356, N-(2,3-dihydroxypropyl)-1-methyl-6-oxo-5-(6-(trifluoromethyl)-1H-indazol-4-yl)-1,6-dihydropyridine-3-carboxamide]
IC50 [1]: 0.316 µM
IC50 [2]: 0.00631 µM

OCCc1cccc(-c2cc(C(F)(F)F)cc3[nH]ncc23)c1 [Example 106, 2-(3-(6-(trifluoromethyl)-1H-indazol-4-yl)phenyl)ethanol]
IC50 [1]: 0.158 µM
IC50 [2]: 0.0126 µM

FC(F)(F)c1cc(-c2ccc3[nH]ncc3c2)c2cn[nH]c2c1 [Example 236, 6-(trifluoromethyl)-1H,1′H-4,5′-biindazole]
IC50 [1]: 0.0631 µM
IC50 [2]: 0.00631 µM

Cc1nn(C)c(C(N)=O)c1-c1cc(C(F)(F)F)cc2[nH]ncc12 [Example 327, 1,3-dimethyl-4-(6-(trifluoromethyl)-1H-indazol-4-yl)-1H-pyrazole-5-carboxamide]
IC50 [1]: 0.631 µM
IC50 [2]: 0.0631 µM

FC(F)(F)c1cc(-c2cccc(N3CCOCC3)c2)c2cn[nH]c2c1 [Example 57, 4-(3-(6-(trifluoromethyl)-1H-indazol-4-yl)phenyl)morpholine]
IC50 [1]: 0.0631 µM
IC50 [2]: 0.0251 µM

Cn1cc(C(=O)N2CCOCC2)cc(-c2cc(C(F)(F)F)cc3[nH]ncc23)c1=O [Example 314, 1-methyl-5-(morpholine-4-carbonyl)-3-(6-(trifluoromethyl)-1H-indazol-4-yl)pyridin-2(1H)-one]
IC50 [1]: 0.631 µM
IC50 [2]: 0.02 µM

COc1ccc(CO)cc1-c1cc(C(F)(F)F)cc2[nH]ncc12 [Example 185, (4-methoxy-3-(6-(trifluoromethyl)-1H-indazol-4-yl)phenyl)methanol]
IC50 [1]: 0.0158 µM
IC50 [2]: 0.00398 µM

COc1ncc(-c2cc(C(F)(F)F)cc3[nH]ncc23)c(N)n1 [Example 256, 2-methoxy-5-(6-(trifluoromethyl)-1H-indazol-4-yl)pyrimidin-4-amine]
IC50 [1]: 0.126 µM
IC50 [2]: 0.01 µM

COc1nc(C(=O)NCCO)ccc1-c1cc(C(F)(F)F)cc2[nH]ncc12 [Example 394, N-(2-hydroxyethyl)-6-methoxy-5-(6-(trifluoromethyl)-1H-indazol-4-yl)picolinamide]
IC50 [1]: 0.0316 µM
IC50 [2]: 0.00501 µM

Cc1[nH]cnc1-c1cc(C(F)(F)F)cc2[nH]ncc12 [Example 161, 4-(5-methyl-1H-imidazol-4-yl)-6-(trifluoromethyl)-1H-indazole]
IC50 [1]: 0.251 µM
IC50 [2]: 0.0126 µM

FC(F)(F)c1cc(-c2ccc(OCC3CC3)nc2)c2cn[nH]c2c1 [Example 58, 4-(6-(cyclopropylmethoxy)pyridin-3-yl)-6-(trifluoromethyl)-1H-indazole]
IC50 [1]: 0.126 µM
IC50 [2]: 0.0126 µM

Cc1nn(CC(N)=O)c(C)c1-c1cc(C(F)(F)F)cc2[nH]ncc12 [Example 173, 2-(3,5-dimethyl-4-(6-(trifluoromethyl)-1H-indazol-4-yl)-1H-pyrazol-1-yl)acetamide]
IC50 [1]: 0.0316 µM
IC50 [2]: 0.0158 µM

CNC(=O)Cn1nc(C)c(-c2cc(C(F)(F)F)cc3[nH]ncc23)c1C [Example 367, 2-(3,5-dimethyl-4-(6-(trifluoromethyl)-1H-indazol-4-yl)-1H-pyrazol-1-yl)-N-methylacetamide]
IC50 [1]: 0.0501 µM
IC50 [2]: 0.0158 µM

CN(C)S(=O)(=O)c1cccc(-c2cc(C(F)(F)F)cc3[nH]ncc23)c1 [Example 108, N,N-dimethyl-3-(6-(trifluoromethyl)-1H-indazol-4-yl)benzenesulfonamide]
IC50 [1]: 0.0794 µM
IC50 [2]: 0.0126 µM

NCC(O)c1ccccc1-c1cc(C(F)(F)F)cc2[nH]ncc12 (stereo not shown) [Example 205, 2-amino-1-(2-(6-(trifluoromethyl)-1H-indazol-4-yl)phenyl)ethanol]
IC50 [1]: 1.26 µM
IC50 [2]: 0.0126 µM

Cn1cc(-c2cc(C(F)(F)F)cc3[nH]ncc23)c(=O)n(CC(N)=O)c1=O [Example 300, 2-(3-methyl-2,6-dioxo-5-(6-(trifluoromethyl)-1H-indazol-4-yl)-2,3-dihydropyrimidin-1(6H)-yl)acetamide]
IC50 [1]: 0.398 µM
IC50 [2]: 0.0126 µM

Cc1c(-c2cc(C(F)(F)F)cc3[nH]ncc23)ccc2nnnn12 [Example 398, 5-methyl-6-(6-(trifluoromethyl)-1H-indazol-4-yl)tetrazolo[1,5-a]pyridine]
IC50 [1]: 0.126 µM
IC50 [2]: 0.00398 µM

CN(C)CCOc1ccc(-c2cc(C(F)(F)F)cc3[nH]ncc23)cc1 [Example 280, N,N-dimethyl-2-(4-(6-(trifluoromethyl)-1H-indazol-4-yl)phenoxy)ethanamine]
IC50 [1]: 0.0316 µM
IC50 [2]: 0.00631 µM

Cc1onc(N)c1-c1cc(C(F)(F)F)cc2[nH]ncc12 [Example 166, 5-methyl-4-(6-(trifluoromethyl)-1H-indazol-4-yl)isoxazol-3-amine]
IC50 [1]: 0.794 µM
IC50 [2]: 0.0398 µM

CNC(=O)Cn1c(=O)c(-c2cc(C(F)(F)F)cc3[nH]ncc23)cn(C)c1=O [Example 301, N-methyl-2-(3-methyl-2,6-dioxo-5-(6-(trifluoromethyl)-1H-indazol-4-yl)-2,3-dihydropyrimidin-1(6H)-yl)acetamide]
IC50 [1]: 1 µM
IC50 [2]: 0.0158 µM

OC(COc1ccccc1-c1cc(C(F)(F)F)cc2[nH]ncc12)CN1CCOCC1 (stereo not shown) [Example 180, 1-morpholino-3-(2-(6-(trifluoromethyl)-1H-indazol-4-yl)phenoxy)propan-2-ol]
IC50 [1]: 1 µM
IC50 [2]: 0.0398 µM

O=C(O)Cn1cc(-c2cc(C(F)(F)F)cc3[nH]ncc23)cn1 [Example 261, 2-(4-(6-(trifluoromethyl)-1H-indazol-4-yl)-1H-pyrazol-1-yl)acetic acid]
IC50 [1]: 1 µM
IC50 [2]: 0.0398 µM

FC(F)(F)COc1ncccc1-c1cc(C(F)(F)F)cc2[nH]ncc12 [Example 100, 4-(2-(2,2,2-trifluoroethoxy)pyridin-3-yl)-6-(trifluoromethyl)-1H-indazole]
IC50 [1]: 0.2 µM
IC50 [2]: 0.0158 µM

Cc1nn(CC(=O)NCCO)cc1-c1cc(C(F)(F)F)cc2[nH]ncc12 [Example 279, N-(2-hydroxyethyl)-2-(3-methyl-4-(6-(trifluoromethyl)-1H-indazol-4-yl)-1H-pyrazol-1-yl)acetamide]
IC50 [1]: 0.0501 µM
IC50 [2]: 0.00501 µM
